Assay results from patent US20250346600A1, “TRICYCLIC DERIVATIVES AND RELATED USES” (MOMA Therapeutics, Inc., priority 2023, published 2025).

Columns and labels:
[1] = target: Full length WRN protein (aa 2-1432) (Homo sapiens (Human), UniProt Q14191); experiment: WRN ATPase ADP-Glo biochemical assay, Assay Format B (100 μM ATP); settings: 0.25 nM WRN, 100 nM C6.18 ssDNA, 60 min preincubation, read-out: ATPase ADPGlo AC50 (uM)- Assay Format B
HCT116 cells = experiment: HCT116 (MSI) 7 day viability, CellTiter Glo; format: cell-based; settings: Homo sapiens, HCT-116, 168 h, 7 days, read-out: HCT116 (MSI) Viability 7 Day Abs AC50
Protocol: (§1) Compounds were dissolved in DMSO to a concentration of 10 mM. Compounds were then serially diluted in 10 3-fold steps in DMSO using an EVO (Tecan). Plates were then spun down for 1 minute at 1,000 RPM at room temperature.
(§2) The colon carcinoma lines HCT116 (RRID: CVCL_0291) and HT29 (RRID: CVCL_0320) were obtained from ATCC. […] All cells were maintained at 37° C. with 5% CO2 incubator.
(§3) After harvesting, cells were spun down for 5 minutes at 1200 RPM. Cells were resuspended in 10 mL of growth media and counted using Countess (Thermo Fisher). Cell concentrations were adjusted to 50 cells/well for HCT116 and 500 cells/well for HT29. 50 μL of diluted cells were added to compound treated 384 well plates using a 12 channel, 300 uL electronic handheld pipette (Integra). Cell treated plates were placed in 37 C with 5% CO2 incubator for 7 days.
(§4) Afterwards, cells were removed from incubator and equilibrated to room temperature for 15 minutes. 35 uL of CellTiter Glo (Promega #G7573) reagent were added to each well using a 12 channel, 300 uL electronic handheld pipette (Integra). Plates were incubated for 20 minutes at room temperature. Luminescence quantification was performed using Envision (PerkinElmer).
(§5) For data analysis, the assay background signal was determined in wells containing medium, but no cells. Potencies were calculated by linear least squares fit to the four-parameter logistic IC50 equation. The reported IC50 values are the geometrical mean of at least 2 independent replicates.

HT29 cells = experiment: HT29 (MSS) 7 day viability, CellTiter Glo; format: cell-based; settings: Homo sapiens, HT-29, 168 h, 7 days, read-out: HT29 (MSS) Viability 7 Day CTGAbs AC50
Protocol: as §1, §2, §3, §4, §5

Full length WRN protein (aa 2-1432), sequence (Q14191 2-1432): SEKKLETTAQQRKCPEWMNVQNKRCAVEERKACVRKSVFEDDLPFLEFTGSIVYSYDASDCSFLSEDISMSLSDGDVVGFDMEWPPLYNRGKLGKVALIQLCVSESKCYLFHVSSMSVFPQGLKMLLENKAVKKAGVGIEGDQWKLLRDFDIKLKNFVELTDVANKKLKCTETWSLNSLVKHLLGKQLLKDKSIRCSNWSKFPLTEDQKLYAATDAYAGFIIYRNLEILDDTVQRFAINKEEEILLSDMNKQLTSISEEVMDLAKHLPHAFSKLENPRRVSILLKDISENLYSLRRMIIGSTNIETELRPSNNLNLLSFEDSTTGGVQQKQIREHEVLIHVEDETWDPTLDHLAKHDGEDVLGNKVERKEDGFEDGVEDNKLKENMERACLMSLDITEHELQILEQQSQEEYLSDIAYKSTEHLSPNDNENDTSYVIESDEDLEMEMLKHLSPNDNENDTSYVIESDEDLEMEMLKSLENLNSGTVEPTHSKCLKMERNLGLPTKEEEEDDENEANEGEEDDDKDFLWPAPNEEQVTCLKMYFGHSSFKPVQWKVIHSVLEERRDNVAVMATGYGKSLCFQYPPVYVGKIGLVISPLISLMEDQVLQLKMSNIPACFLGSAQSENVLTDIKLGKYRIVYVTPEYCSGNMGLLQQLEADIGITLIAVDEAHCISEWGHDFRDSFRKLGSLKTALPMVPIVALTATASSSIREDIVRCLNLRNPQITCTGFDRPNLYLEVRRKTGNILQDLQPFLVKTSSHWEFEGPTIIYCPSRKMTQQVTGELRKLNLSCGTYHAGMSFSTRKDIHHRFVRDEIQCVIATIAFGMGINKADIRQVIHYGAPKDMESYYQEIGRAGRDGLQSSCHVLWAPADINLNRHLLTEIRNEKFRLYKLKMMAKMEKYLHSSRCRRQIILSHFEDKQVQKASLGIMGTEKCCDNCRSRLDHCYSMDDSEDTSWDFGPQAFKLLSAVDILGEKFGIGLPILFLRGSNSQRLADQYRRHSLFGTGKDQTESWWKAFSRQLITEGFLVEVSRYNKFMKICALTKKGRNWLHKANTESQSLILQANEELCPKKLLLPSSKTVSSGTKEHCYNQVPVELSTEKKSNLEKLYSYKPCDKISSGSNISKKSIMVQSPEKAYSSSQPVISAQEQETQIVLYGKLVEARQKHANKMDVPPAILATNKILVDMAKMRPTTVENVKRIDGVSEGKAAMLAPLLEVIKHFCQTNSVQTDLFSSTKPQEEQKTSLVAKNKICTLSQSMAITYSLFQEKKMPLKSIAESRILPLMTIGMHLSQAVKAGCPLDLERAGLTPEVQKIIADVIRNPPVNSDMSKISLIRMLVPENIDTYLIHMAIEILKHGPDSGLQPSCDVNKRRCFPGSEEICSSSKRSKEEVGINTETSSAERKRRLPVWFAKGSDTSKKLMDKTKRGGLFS

| SMILES | AC50 [1] [µM] | AC50 (HCT116 cells) [nM] | AC50 (HT29 cells) [nM] |
| --- | --- | --- | --- |
| C=CC(=O)N1CCc2nn(-c3ccc(C4CCC4)c(F)c3N)c3c2C(C1)N(C(=O)c1cnc(C(F)(F)F)c(O)c1)CC3 (stereo not drawn) [Compound 71, 1-(2-(2-amino-4-cyclobutyl-3-fluorophenyl)-5-(5-hydroxy-6-(trifluoromethyl)nicotinoyl)-2,3,4,5,5a,6,8,9-octahydro-7H-1,2,5,7-tetraazabenzo[cd]azulen-7-yl)prop-2-en-1-one] | 0.005 to 0.015 | 1 to 100 | > 3000 |
| C=CC(=O)N1CC2c3c(nn(-c4ccc(C5CC5)cc4)c3CCN2C(=O)c2cnc(C(F)(F)F)cc2N)C2(C1)CN(c1nnc(C)s1)C2 (stereo not drawn) [Compound 233, 1-(5′-(4-amino-6-(trifluoromethyl)nicotinoyl)-2′-(4-cyclopropylphenyl)-1-(5-methyl-1,3,4-thiadiazol-2-yl)-2′,3′,4′,5′,5a′,6′-hexahydro-1′,2′,5′,7′-tetraazaspiro[azetidine-3,9′-benzo[cd]azulen]-1′(9a′),2a′-dien-7′(8′H)-yl)prop-2-en-1-one] | > 0.055 | 100 to 250 | > 3000 |
| C=CC(=O)N1CCc2nn(-c3ccc(C4CC4)cc3O)c3c2C(C1)N(C(=O)c1cnc(C(F)(F)F)c(O)c1)CC3 (stereo not drawn) [Compound 175, 1-(2-(4-cyclopropyl-2-hydroxyphenyl)-5-(5-hydroxy-6-(trifluoromethyl)nicotinoyl)-2,3,4,5,5a,6,8,9-octahydro-7H-1,2,5,7-tetraazabenzo[cd]azulen-7-yl)prop-2-en-1-one] | 0.0015 to 0.005 | 100 to 250 | > 3000 |
| C=CC(=O)N1CCc2nn(-c3ccc(C4CC4)cc3O)c3c2C(C1)N(C(=O)c1cnc(C(F)(F)F)nc1N)CC3 (stereo not drawn) [Compound 197, 1-(5-(4-amino-2-(trifluoromethyl)pyrimidine-5-carbonyl)-2-(4-cyclopropyl-2-hydroxyphenyl)-2,3,4,5,5a,6,8,9-octahydro-7H-1,2,5,7-tetraazabenzo[cd]azulen-7-yl)prop-2-en-1-one] | 0.005 to 0.015 | 1 to 100 | > 3000 |
| C=CC(=O)N1CCc2nn(-c3ccc(C4CC4)c(F)c3O)c3c2C(C1)N(C(=O)c1cnc(C(F)(F)F)c(F)c1N)CC3 (stereo not drawn) [Compound 218, 1-(5-(4-amino-5-fluoro-6-(trifluoromethyl)nicotinoyl)-2-(4-cyclopropyl-3-fluoro-2-hydroxyphenyl)-2,3,4,5,5a,6,8,9-octahydro-7H-1,2,5,7-tetraazabenzo[cd]azulen-7-yl)prop-2-en-1-one] | 0.005 to 0.015 | 1 to 100 | > 3000 |
| C=CC(=O)N1CC2c3c(nn(-c4ccc(C5CC5)cc4)c3CCN2C(=O)c2ccc(C(F)(F)F)cc2)C(n2ccccc2=O)C1 (stereo not drawn) [Compound 231, 1-(7-acryloyl-2-(4-cyclopropylphenyl)-5-(4-(trifluoromethyl)benzoyl)-3,4,5,5a,6,7,8,9-octahydro-2H-1,2,5,7-tetraazabenzo[cd]azulen-9-yl)pyridin-2(1H)-one] | 0.015 to 0.055 | 1 to 100 | > 3000 |
| C=CC(=O)N1CCc2nn(-c3ccc(C4CC4)cc3)c3c2C(C1)N(C(=O)c1cnc(OC(F)F)cc1N)CC3 (stereo not drawn) [Compound 177, 1-(5-(4-amino-6-(difluoromethoxy)nicotinoyl)-2-(4-cyclopropylphenyl)-2,3,4,5,5a,6,8,9-octahydro-7H-1,2,5,7-tetraazabenzo[cd]azulen-7-yl)prop-2-en-1-one] | 0.005 to 0.015 | 1 to 100 | > 3000 |

Continued, in another order:

| AC50 [1] [µM] | SMILES | AC50 (HCT116 cells) [nM] | AC50 (HT29 cells) [nM] |
| --- | --- | --- | --- |
| 0.005 to 0.015 | C=CC(=O)N1CC(OC2CN(C(C)=O)C2)c2nn(-c3ccc(C4CCC4)cc3)c3c2C(C1)N(C(=O)c1ccc(C(F)(F)F)nc1)CC3 (stereo not drawn) [Compound 205, 1-(9-((1-acetylazetidin-3-yl)oxy)-2-(4-cyclobutylphenyl)-5-(6-(trifluoromethyl)nicotinoyl)-2,3,4,5,5a,6,8,9-octahydro-7H-1,2,5,7-tetraazabenzo[cd]azulen-7-yl)prop-2-en-1-one] | 1 to 100 | > 3000 |
| 0.005 to 0.015 | C=CC(=O)N1CCc2nn(-c3ccc(C4CCC4)cc3O)c3c2C(C1)N(C(=O)c1ccc(C(F)(F)F)nc1N)CC3 (stereo not drawn) [Compound 76, 1-(5-(2-amino-6-(trifluoromethyl)nicotinoyl)-2-(4-cyclobutyl-2-hydroxyphenyl)-2,3,4,5,5a,6,8,9-octahydro-7H-1,2,5,7-tetraazabenzo[cd]azulen-7-yl)prop-2-en-1-one] | 1 to 100 | > 3000 |
| 0.015 to 0.055 | C=CC(=O)N1CCc2nn(-c3ccc(CC(F)(F)F)cc3O)c3c2C(C1)N(C(=O)c1cnc(C(F)(F)F)cc1N)CC3 (stereo not drawn) [Compound 180, 1-(5-(4-amino-6-(trifluoromethyl)nicotinoyl)-2-(2-hydroxy-4-(2,2,2-trifluoroethyl)phenyl)-2,3,4,5,5a,6,8,9-octahydro-7H-1,2,5,7-tetraazabenzo[cd]azulen-7-yl)prop-2-en-1-one] | 1 to 100 | > 3000 |
| 0.005 to 0.015 | C=CC(=O)N1CCc2nn(-c3ccc(C4CC4)cc3O)c3c2C(C1C)N(C(=O)c1cnc(C(F)(F)F)cc1N)CC3 (stereo not drawn) [Compound 221, 1-(5-(4-amino-6-(trifluoromethyl)nicotinoyl)-2-(4-cyclopropyl-2-hydroxyphenyl)-6-methyl-2,3,4,5,5a,6,8,9-octahydro-7H-1,2,5,7-tetraazabenzo[cd]azulen-7-yl)prop-2-en-1-one] | 1 to 100 | > 3000 |
| 0.0015 to 0.005 | C=CC(=O)N1CC(OC2CC(C#N)C2)c2nn(-c3ccc(C4CC4)cc3O)c3c2C(C1)N(C(=O)c1cnc(C(F)(F)F)cc1N)CC3 (stereo not drawn) [Compound 222, 3-((7-acryloyl-5-(4-amino-6-(trifluoromethyl)nicotinoyl)-2-(4-cyclopropyl-2-hydroxyphenyl)-3,4,5,5a,6,7,8,9-octahydro-2H-1,2,5,7-tetraazabenzo[cd]azulen-9-yl)oxy)cyclobutane-1-carbonitrile] | 1 to 100 | > 3000 |
| 0.005 to 0.015 | C=CC(=O)N1CCc2nn(-c3ccc(SC(F)(F)F)cc3O)c3c2C(C1)N(C(=O)c1cnc(C(F)(F)F)cc1N)CC3 (stereo not drawn) [Compound 226, 1-(5-(4-amino-6-(trifluoromethyl)nicotinoyl)-2-(2-hydroxy-4-((trifluoromethyl)thio)phenyl)-2,3,4,5,5a,6,8,9-octahydro-7H-1,2,5,7-tetraazabenzo[cd]azulen-7-yl)prop-2-en-1-one] | 1 to 100 | > 3000 |
| 0.005 to 0.015 | C=CC(=O)N1CCc2nn(-c3ccc(C4CCC4)cc3O)c3c2C(C1)N(C(=O)c1cnc(Cl)c(O)c1)CC3 (stereo not drawn) [Compound 140, 1-(5-(6-chloro-5-hydroxynicotinoyl)-2-(4-cyclobutyl-2-hydroxyphenyl)-2,3,4,5,5a,6,8,9-octahydro-7H-1,2,5,7-tetraazabenzo[cd]azulen-7-yl)prop-2-en-1-one] | 1 to 100 | > 3000 |
| 0.0015 to 0.005 | C=CC(=O)N1CCc2nc(-c3ccc(C4CCC4)cc3)n3c2C(C1)N(C(=O)c1ccc(Br)c2[nH]c(C(F)F)nc12)CC3 (stereo not drawn) [Compound 237, 1-(5-(7-bromo-2-(difluoromethyl)-1H-benzo[d]imidazole-4-carbonyl)-2-(4-cyclobutylphenyl)-4,5,5a,6,8,9-hexahydro-1,2a,5,7-tetraazabenzo[cd]azulen-7(3H)-yl)prop-2-en-1-one] | 1 to 100 | > 3000 |
